Measured values: ChEMBL document CHEMBL5335863, “Design, Synthesis, and Evaluation of 8-(o-Tolyl)quinazoline Derivatives as Small-Molecule PD-1/PD-L1 Antagonists” (ACS Med Chem Lett, 2024)

What was measured:
[1] = molecular target: T1, Programmed cell death protein 1/Programmed cell death 1 ligand 1 (Homo sapiens, UniProt Q15116+Q9NZQ7); test: Inhibition of PD-1/PD-L1 interaction (unknown origin) incubated for 60 min by HTRF assay; format: protein-complex assay
[2] = molecular target: T1, Programmed cell death protein 1/Programmed cell death 1 ligand 1; test: Inhibition of PD-1/PD-L1 interaction in co-culture of Jurkat-NFAT-PD-1 cells expressing PD-1 and reporter gene and Hep3B-OS8-hPD-L1 cells expressing OS-8 and human PD-L1 assessed as increase in luminescence intensity incubated for 6 hrs by luminometry; conditions: dose 0.4-1.11 µM
[3] = tested on: Jurkat; test: Cytotoxicity against human Jurkat cells assessed as reduction in cell viability at 3.3 uM incubated for 48 hrs by CCK-8 assay; format: toxicity, cell-based

T1 sequence (Q15116 whole entry): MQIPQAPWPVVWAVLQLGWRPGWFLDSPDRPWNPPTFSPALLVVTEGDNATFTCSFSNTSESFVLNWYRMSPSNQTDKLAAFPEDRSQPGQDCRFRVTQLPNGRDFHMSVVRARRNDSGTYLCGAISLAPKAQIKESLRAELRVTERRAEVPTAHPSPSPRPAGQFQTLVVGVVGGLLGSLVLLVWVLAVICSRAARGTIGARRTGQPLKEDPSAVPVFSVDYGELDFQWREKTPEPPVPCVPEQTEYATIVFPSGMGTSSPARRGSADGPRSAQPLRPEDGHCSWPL
T1 sequence (Q9NZQ7 whole entry): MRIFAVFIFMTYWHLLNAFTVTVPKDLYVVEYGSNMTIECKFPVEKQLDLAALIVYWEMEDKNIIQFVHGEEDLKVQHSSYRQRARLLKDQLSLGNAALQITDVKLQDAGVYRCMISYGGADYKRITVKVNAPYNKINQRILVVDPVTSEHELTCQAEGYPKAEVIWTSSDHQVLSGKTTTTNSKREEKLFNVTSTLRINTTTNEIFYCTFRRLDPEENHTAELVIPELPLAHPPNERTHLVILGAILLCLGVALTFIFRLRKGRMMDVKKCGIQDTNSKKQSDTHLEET

SMILES	IC50 [1]	inhibition [2]	Activity [3]
Cc1c(COc2cc(OCc3cccc(C#N)c3)c(CNCCO)cc2Cl)cccc1-c1cccc2c(Oc3cc(OCc4cccc(C#N)c4)c(CNCCO)cc3Cl)ncnc12	37.7 nM		
Cc1c(COc2cc(OCc3cccc(C#N)c3)c(CNC3CC3)cc2Cl)cccc1-c1cccc2c(Oc3cc(OCc4cccc(C#N)c4)c(CNC4CC4)cc3Cl)ncnc12	390 nM		
CCNCc1cc(Cl)c(OCc2cccc(-c3cccc4c(Oc5cc(OCc6cccc(C#N)c6)c(CNCC)cc5Cl)ncnc34)c2C)cc1OCc1cccc(C#N)c1	48.5 nM		
Cc1c(COc2cc(OCc3cccc(C#N)c3)c(CNC3CCCCC3)cc2Cl)cccc1-c1cccc2c(Oc3cc(OCc4cccc(C#N)c4)c(CNC4CCCCC4)cc3Cl)ncnc12	167 nM		
Cc1c(COc2cc(OCc3cccc(C#N)c3)c(CN(C)CCO)cc2Cl)cccc1-c1cccc2c(Oc3cc(OCc4cccc(C#N)c4)c(CN(C)CCO)cc3Cl)ncnc12	44.8 nM		
CC(CO)(CO)NCc1cc(Cl)c(Oc2ncnc3c(-c4ccc5c(c4)OCCO5)cccc23)cc1OCc1cccc(C#N)c1	40.8 nM		
Cc1c(COc2cc(OCc3cccc(C#N)c3)c(CNC(CO)CO)cc2Cl)cccc1-c1cccc2c(Oc3cc(OCc4cccc(C#N)c4)c(CNC(CO)CO)cc3Cl)ncnc12	47.2 nM		
CC(=O)NCCNCc1cc(Cl)c(OCc2cccc(-c3cccc4c(Oc5cc(OCc6cccc(C#N)c6)c(CNCCNC(C)=O)cc5Cl)ncnc34)c2C)cc1OCc1cccc(C#N)c1	61.4 nM		
Cc1c(COc2cc(OCc3cccc(C#N)c3)c(CNC3CCCC3)cc2Cl)cccc1-c1cccc2c(Oc3cc(OCc4cccc(C#N)c4)c(CNC4CCCC4)cc3Cl)ncnc12	112 nM		
Cc1c(COc2cc(OCc3cccc(C#N)c3)c(CNC3CCOCC3)cc2Cl)cccc1-c1cccc2c(Oc3cc(OCc4cccc(C#N)c4)c(CNC4CCOCC4)cc3Cl)ncnc12	59.7 nM		
Cc1c(COc2cc(OCc3cccc(C#N)c3)c(CN3CCC(O)CC3)cc2Cl)cccc1-c1cccc2c(Oc3cc(OCc4cccc(C#N)c4)c(CN4CCC(O)CC4)cc3Cl)ncnc12	75.8 nM		
Cc1c(COc2cc(OCc3cccc(C#N)c3)c(CNC[C@H](O)CO)cc2Cl)cccc1-c1cccc2c(Oc3cc(OCc4cccc(C#N)c4)c(CNC[C@H](O)CO)cc3Cl)ncnc12	33.9 nM		
Cc1c(COc2cc(OCc3cccc(C#N)c3)c(CO)cc2Cl)cccc1-c1cccc2c(Oc3cc(OCc4cccc(C#N)c4)c(CO)cc3Cl)ncnc12	> 1000 nM		
Cc1c(COc2cc(OCc3cccc(C#N)c3)c(CNC(CO)(CO)CO)cc2Cl)cccc1-c1cccc2c(Oc3cc(OCc4cccc(C#N)c4)c(CNC(CO)(CO)CO)cc3Cl)ncnc12	25.3 nM		
Cc1c(Nc2nccc3cc(CN4CC[C@H](O)C4)cnc23)cccc1-c1cccc(-c2nc3cc(CN4CC[C@H](C(=O)O)C4)cc(C#N)c3o2)c1C	12.1 nM		
COCCNCc1cc(Cl)c(OCc2cccc(-c3cccc4c(Oc5cc(OCc6cccc(C#N)c6)c(CNCCOC)cc5Cl)ncnc34)c2C)cc1OCc1cccc(C#N)c1	101 nM		
Cc1c(COc2cc(OCc3cccc(C#N)c3)c(CN3CC[C@@H](O)C3)cc2Cl)cccc1-c1cccc2c(Oc3cc(OCc4cccc(C#N)c4)c(CN4CC[C@@H](O)C4)cc3Cl)ncnc12	46.2 nM		
Cc1c(COc2cc(OCc3cccc(C#N)c3)c(CNC3CCC3)cc2Cl)cccc1-c1cccc2c(Oc3cc(OCc4cccc(C#N)c4)c(CNC4CCC4)cc3Cl)ncnc12	105 nM		
Cc1c(COc2cc(OCc3cccc(C#N)c3)c(CNC(C)(CO)CO)cc2Cl)cccc1-c1cccc2c(Oc3cc(OCc4cccc(C#N)c4)c(CNC(C)(CO)CO)cc3Cl)ncnc12	30.2 nM		
Cc1c(COc2cc(OCc3cccc(C#N)c3)c(C=O)cc2Cl)cccc1-c1cccc2c(Oc3cc(OCc4cccc(C#N)c4)c(C=O)cc3Cl)ncnc12	> 1000 nM		
Cc1c(COc2cc(OCc3cccc(C#N)c3)c(CNC(C)C)cc2Cl)cccc1-c1cccc2c(Oc3cc(OCc4cccc(C#N)c4)c(CNC(C)C)cc3Cl)ncnc12	51.5 nM		
Cc1c(COc2cc(OCc3cccc(C#N)c3)c(CN3CC[C@H](O)C3)cc2Cl)cccc1-c1cccc2c(Oc3cc(OCc4cccc(C#N)c4)c(CN4CC[C@H](O)C4)cc3Cl)ncnc12	55.5 nM		
Cc1c(COc2cc(OCc3cccc(C#N)c3)c(CNC[C@@H](O)CO)cc2Cl)cccc1-c1cccc2c(Oc3cc(OCc4cccc(C#N)c4)c(CNC[C@@H](O)CO)cc3Cl)ncnc12	23.8 nM	Dose-Dependent Effect	Non-Toxic
